pEC50, pKi: −log10 of the molar value. A value given as a limit tells only on which side of the number the result lay.

The target in experiment [1] is Melatonin receptor type 1A (Homo sapiens, UniProt P48039). The experiment in a line: Binding affinity towards human melatonin receptor type 1A.
The target of experiment [2] is T1, Melatonin receptor type 1B (Homo sapiens, UniProt P49286).
T1 sequence (P49286 whole entry): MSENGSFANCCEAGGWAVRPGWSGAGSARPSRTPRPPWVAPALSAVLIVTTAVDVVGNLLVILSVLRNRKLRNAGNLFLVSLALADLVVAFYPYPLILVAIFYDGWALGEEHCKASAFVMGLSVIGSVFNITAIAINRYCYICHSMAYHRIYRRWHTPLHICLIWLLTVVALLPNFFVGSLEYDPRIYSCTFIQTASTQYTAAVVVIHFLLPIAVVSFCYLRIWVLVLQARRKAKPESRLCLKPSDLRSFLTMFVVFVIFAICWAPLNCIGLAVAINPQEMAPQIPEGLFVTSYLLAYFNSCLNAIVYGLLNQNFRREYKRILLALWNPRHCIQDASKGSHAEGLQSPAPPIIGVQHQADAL
The experiment in a line: Binding affinity towards human melatonin receptor type 1B.

The test system of a further experiment is NIH3T3. The experiment in a line: Inhibition of forskolin-stimulated cAMP accumulation in NIH3T3 cells expressing MT2 receptor. The experiment is classed as functional, cell-based. As to conditions: Mus musculus.

Melatonin receptor type 1A, sequence (P48039 whole entry): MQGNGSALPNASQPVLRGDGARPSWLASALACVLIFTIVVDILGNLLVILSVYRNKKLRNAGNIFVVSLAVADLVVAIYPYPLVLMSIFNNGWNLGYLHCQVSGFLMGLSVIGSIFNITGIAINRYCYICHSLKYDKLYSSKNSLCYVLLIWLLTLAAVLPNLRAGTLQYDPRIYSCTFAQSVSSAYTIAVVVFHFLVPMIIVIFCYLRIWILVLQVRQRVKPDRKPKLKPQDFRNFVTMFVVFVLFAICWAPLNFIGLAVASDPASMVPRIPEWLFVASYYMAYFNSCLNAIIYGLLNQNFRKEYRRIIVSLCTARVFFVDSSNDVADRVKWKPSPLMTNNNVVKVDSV

For `CCNC(=O)Nc1ccc(Oc2cccc(OC)c2)cc1`, the negative-log Ki (pKi) (commonly the negative decadic logarithm of the Ki, by convention in mol/L) in experiment [1] was under 6.30; in experiment [2] it was 6.60.
On the same counts, the results for `COc1cccc(Nc2ccc(NC(=O)C(C)C)cc2)c1` are under 6.30 and 7.08.
As for `CCCC(=O)Nc1ccc(Cc2cccc3occc23)cc1`, the figures for the negative-log Ki (pKi) in experiment [1] and in experiment [2] were 7.04 and 9.11, respectively.
`CCOC(=O)Nc1ccc(N(C)c2cccc(OC)c2)cc1`: the pKi in experiment [1] is 7.47; in experiment [2], 8.14.
On the same counts, the results for `COc1cccc(N(C)c2ccc(NC(=O)C3CC3)cc2)c1` are 7.92 and 8.32.
On the same counts, the results for `CCCC(=O)Nc1ccc(N(C)c2cccc3c2CCO3)cc1` are 7.44 and 9.31.
Consider `COCC(=O)Nc1ccc(Oc2cccc(OC)c2)cc1`, for which the pKi in experiment [1] was 6.74; in experiment [2], 8.23.
On the same counts, the results for `COc1cccc(N(C)c2ccc(NC(=O)C(C)C)cc2)c1` are 6.97 and 8.26.
On the same counts, the results for `COc1cccc(Nc2ccc(NC(=O)C3CC3)cc2)c1` are 7.21 and 7.19.
On the same counts, the results for `CCCC(=O)Nc1ccc(Oc2cccc3c2OCCO3)cc1` are 7.04 and 8.33.
On to `CCCC(=O)Nc1ccc(Sc2cccc(OC)c2)cc1`, for which the negative-log Ki (pKi) in experiment [1] was 7.54; in experiment [2], 9.72.
On the same counts, the results for `COc1cccc(Nc2ccc(NC(C)=O)cc2)c1` are 7.08 and 8.38.
For the compound `CCCC(=O)Nc1ccc(S(=O)(=O)c2cccc(OC)c2)cc1`, the negative logarithm of the Ki (pKi) is under 6.30 in experiment [1] and 8.00 in experiment [2].
For the compound `CCCC(=O)Nc1ccc(Oc2cccc(OC)c2)cc1`, the figures for the pKi in experiment [1] and in experiment [2] were 7.20 and 9.12, respectively. Besides, in the experiment on NIH3T3, the negative-log EC50 (pEC50) (usually the EC50 on a negative log10 scale, so that one unit is a factor of ten) is 8.97.
On to `CCCC(=O)Nc1cccc(Oc2cccc(OC)c2)c1`, for which the figures for the pKi in experiment [1] and in experiment [2] were under 6.30 and 7.57, respectively.
On the same counts, the results for `CCCC(=O)Nc1ccc(Cc2cccc3c2CCO3)cc1` are 7.39 and 9.15.
Take `COc1cccc(Oc2ccc(NC(=O)CC(C)C)cc2)c1`: the results for the pKi in experiment [1] and in experiment [2] were under 6.30 and 7.82, respectively.
With `CCC(=O)Nc1ccc(Oc2cccc(OC)c2)cc1`, the pKi was 6.52 in experiment [1] and 8.17 in experiment [2].
In the case of `CCC(=O)Nc1ccc(Nc2cccc(OC)c2)cc1`, the values for the negative logarithm of the Ki (pKi) in experiment [1] and in experiment [2] were 7.21 and 8.74, respectively.
On to `COc1cccc(Oc2ccc(NC(=O)C(C)C)cc2)c1`, for which the pKi in experiment [1] is under 6.30; in experiment [2], 6.91.
On the same counts, the results for `CCCC(=O)Nc1ccc(Oc2ccccc2OC)cc1` are under 6.30 and 6.97.
For the compound `CCCC(=O)Nc1ccc(Nc2cccc3c2CCO3)cc1`, the results for the negative logarithm of the Ki (pKi) in experiment [1] and in experiment [2] were under 6.30 and 7.41, respectively.
On the same counts, the results for `COc1cccc(N(C)c2ccc(NC(C)=O)cc2)c1` are 10.30 and 9.64.
On the same counts, the results for `C/C=C/C(=O)Nc1ccc(Oc2cccc(OC)c2)cc1` are 7.01 and 8.68.
Take `CCCC(=O)Nc1ccc(N(C)c2cccc(OC)c2)cc1`: the pKi in experiment [1] is 8.96; in experiment [2] it was 10.00.
`CCCCC(=O)Nc1ccc(Oc2cccc(OC)c2)cc1`: the pKi in experiment [1] is under 6.30.
Regarding `CCOC(=O)Nc1ccc(Nc2cccc(OC)c2)cc1`, the pKi in experiment [1] was under 6.30; in experiment [2], 6.82.
For `CCCC(=O)Nc1ccc(Oc2ccc(OC)cc2)cc1`, the pKi in experiment [1] was under 6.30; in experiment [2], under 6.40.
With `CCCC(=O)Nc1ccc(C(=O)c2cccc(OC)c2)cc1`, the negative-log Ki (pKi) was under 6.30 in experiment [1] and 7.48 in experiment [2].
For `COc1cccc(Oc2ccc(NC(C)=O)cc2)c1`, the figures for the pKi in experiment [1] and in experiment [2] were 7.08 and 8.39, respectively.
On the same counts, the results for `CCCC(=O)Nc1ccc(Cc2cccc(OC)c2)cc1` are 7.96 and 9.92.
Take `CCCC(=O)Nc1ccc(Nc2cccc(OC)c2)cc1`: the pKi in experiment [1] is 7.51; in experiment [2], 9.41.
On the same counts, the results for `CCCC(=O)Nc1ccc(Oc2cccc3c2CCO3)cc1` are 7.74 and 9.17.
On to `CCC(=O)Nc1ccc(N(C)c2cccc(OC)c2)cc1`, for which the negative-log Ki (pKi) in experiment [1] is 9.00; in experiment [2], 9.77.
On the same counts, the results for `COc1cccc(Oc2ccc(NC(=O)C3CC3)cc2)c1` are 7.00 and 7.89.
As for `C#CCC(=O)Nc1ccc(Oc2cccc(OC)c2)cc1`, the pKi in experiment [1] is under 6.30; in experiment [2] it was 6.96.
On the same counts, the results for `CCCC(=O)Nc1ccccc1Oc1cccc(OC)c1` are under 6.30 and 6.89.
